Earlier results as cited in US5500433A, “Method of treating drug abuse” (Merrell Pharmaceuticals Inc., priority 1995, dated 1996).

Tests used:
[1] = tested on: thrombus formation; conditions: canine models
[2] = tested on: phospholipase C mediated hydrolysis of phosphoinositides; conditions: rabbit vascular smooth muscle cells
[3] = tested on: coronary vessels; conditions: patients with stable angina
[4] = tested on: vascular smooth muscle cells; conditions: rabbit vascular smooth muscle cells
[5] = tested on: preference for alcohol and cocaine; conditions: rodent

Structure (SMILES)	prevention of thrombus formation [1]	inhibition of phospholipase C mediated hydrolysis of phosphoinositides [2]	effect on coronary vessel constriction [3]	effect on PDGF induced DNA synthesis [4]	effect on preference for alcohol and cocaine [5]
O=C(c1ccc(F)cc1)C1CCN(CCn2c(=O)[nH]c3ccccc3c2=O)CC1 [Ketanserin]	extremely effective in preventing thrombus formation	inhibited phospholipase C mediated hydrolysis of phosphoinositides	blocked coronary vessel constriction	inhibited PDGF induced DNA synthesis	–
Cc1nc2sccn2c(=O)c1CCN1CCC(=C(c2ccc(F)cc2)c2ccc(F)cc2)CC1 [ritanserin]	–	–	–	–	abolished the preference for both alcohol and cocaine
NCCc1c[nH]c2ccc(O)cc12 [serotonin]	–	–	induced constriction of the coronary vessels in these patients at all concentrations tested	stimulates PDGF induced DNA synthesis	–
